What was measured:
NCI-H2030 = experiment: In vitro combination proliferation assay (4 day, Cell TiterGlo), NCI-H2030; assay type: cell-based; conditions: NCI-H2030, 4 day growth assay, absolute IC50
Procedure: Eleven cell lines for this study are obtained from ATCC and grown under ATCC recommended conditions. All cell lines have a KRAS G12C mutation, and they are […] lung cancer cell lines (H358, H1373, H1792, H2030, H2122, SW1573 and HCC44), two colorectal cancer cell lines (SW837 and SW1463), one pancreatic cancer cell line (MiaPaca-2), and one esophageal cancer cell line (KYSE410). The proliferation assay is performed as a 4 day growth assay using Cell TiterGlo® as the readout. Briefly, cells are plated in 96-well cell culture plates and allowed to adhere overnight at 37° C. The following day, cells are treated with compounds, either single treatments or combination treatments. First, the testing compounds are serially diluted in DMSO, followed by dilution into media as a 5×concentration with 1% DMSO, and finally added to cells in media to dilute to 1×. […] At the end of the incubation period, Cell TiterGlo® reagent is mixed and added to the wells. After 10 minutes, the luminescence is read by a Perkin Elmer Envision instrument. Absolute IC50 values generated by a 4-parameter logistics model for the single and combination treatments are generated, followed by combination indexes for each combination treatment and cell line. The combination IC50 values are adjusted based on the total concentration of each compound when added together. […] The combination index (CI) measures the degree to which the potency of a combination therapy differs from the expected-if-additive potency and is based on the Loewe definition of additivity.
• CA,y and CB,y are the concentrations of therapies A and B that produce an effect, y, when given in combination • ICA,y and ICB,y are the concentrations of A and B that produce an effect, y, when given individually
In some cases, if an estimated IC50 value is used for CI calculation, the calculated CI is called Potentiation Index. […]

pERK = experiment: In vivo pharmacodynamic effect, pERK Meso Scale Discovery ELISA of tumor lysates, pancreatic cancer MiaPaca-2 xenograft model; conditions: Mus musculus, MIA PaCa-2, MiaPaca-2 model; for inhibition at 5 mg/kg: single dose 5 mg/kg; for inhibition at 10 mg/kg: single dose 10 mg/kg; for inhibition at 30 mg/kg: single dose 30 mg/kg
Procedure: The purpose of these assays is to evaluate in vivo target inhibition of an orally administered test compound. Human lung cancer H358 cells, or pancreatic cancer MiaPaca-2 cells, are implanted into nude mice xenograft tumor models. H358 or MiaPaca-2 cells (10×106 in a 1:1 Matrigel® mix, 0.2 mL total volume) are implanted by subcutaneous injection in hind leg of nude female mice (Harlan Laboratories). A total of 3-4 mice in each group are used for target engagement and PD study. Treatment is initiated with oral administration (gavage) of a test compound or vehicle (20% Captisol®, 25 mM phosphate, pH 2.0 in 0.2 mL) when the tumor size reaches approximately 300 mg.
For in vivo target inhibition and PD analysis, tumors are ground by mortar and pestle on dry ice and tumor fragments are added to 800 μL of lysis buffer containing 1% Triton™ X-100, 25 mM Tris pH7.5, 150 mM sodium chloride, 1 mM EDTA, and 1 mM EGTA with Halt protease and phosphatase inhibitor cocktail (Thermo Scientific, cat. no. 1861281) in lysing matrix D tubes (MP Biomedical®, cat. no. 6913-500) with one additional large bead (MP Biomedical® ¼″ ceramic sphere bead cat. no. 6540-412) per tube. Tumor fragments are homogenized in a Thermo Bio101® fast prep (FP120) at setting 4 for […] while cold for a total of 2 times. Lysates are spun at 14,000 rpm for 10 minutes at 4° C. to clarify. Protein estimation is done on the lysate supernatant using a BioRad Dc® protein assay and lysates are diluted in complete lysis/binding buffer from the Ras GTPase Chemi ELISA Kit® (Active Motif, cat. no. 52097). The active KRas ELISA is performed as follows: glutathione-coated ELISA wells are incubated with diluted RAF1-GST in complete lysis/binding buffer for 1 hour at 4° C. with gentle agitation. Wells are washed 3 times with wash buffer and 100 μg of lysates are added to each well and incubated at ambient temperature for 1 hour with mild agitation. The wells are washed an additional 3 times, then primary antibody, diluted in antibody binding buffer, is added to each well. The plates are incubated for 1 hour. The wells are washed 3 more times before adding HRP-conjugated secondary antibody, diluted in antibody binding buffer, to each well. The plates are incubated at ambient temperature for 1 hour. ELISA wells are washed 4 times, chemiluminescent reagent is added and then luminescence is read. For pERK Meso Scale Discovery ELISA, 25 μg of protein containing 0.1% SDS is used; Meso Scale Discovery Whole Cell Lysate Kit for pERK is provided by Meso Scale Discovery.
The purpose of this assay is to evaluate the does and time dependent in vivo target inhibition and pharmacodynamic effects in a pancreatic cancer model. The compound of Examples 35 is dosed at 5, 10 or 30 mg/kg in a time course experiment. After a single dose, the tumor samples are harvested at 2, 4, 8, 12 and 24 hours post doing. The tumor lysates are prepared and the inhibition of pERK and active KRas is measured as described above.

## C=CC(=O)N1CCN2C(=O)c3cc(F)c(-c4ccc(F)c5sc(N)c(C#N)c45)c(Cl)c3OCC[C@H]2C1 [Example 35, 4-[(13aS)-10-Chloro-8-fluoro-6-oxo-2-prop-2-enoyl-1,3,4,12,13,13a-hexahydropyrazino[2,1-d][1,5]benzoxazocin-9-yl]-2-amino-7-fluoro-benzothiophene-3-carbonitrile]
NCI-H2030
  IC50, single treatment (Compound IC50 / Example 35 IC50): 819.6 nM
pERK; 2 hours
  inhibition at 5 mg/kg: 51%
  inhibition at 10 mg/kg: 68.5%
  inhibition at 30 mg/kg: 59.5%
pERK; 4 hours
  inhibition at 5 mg/kg: 50.9%
  inhibition at 10 mg/kg: 58.5%
  inhibition at 30 mg/kg: 58.7%
pERK; 8 hours
  inhibition at 5 mg/kg: 59%
  inhibition at 10 mg/kg: 57.6%
  inhibition at 30 mg/kg: 54.3%
pERK; 12 hours
  inhibition at 5 mg/kg: 47.4%
  inhibition at 10 mg/kg: 49%
  inhibition at 30 mg/kg: 58.4%
pERK; 24 hours
  inhibition at 5 mg/kg: -30.2%
  inhibition at 10 mg/kg: -14.9%
  inhibition at 30 mg/kg: 15.6%

— patent publication US20230339968A1, “KRAS Gl2C INHIBITORS” (Eli Lilly and Company, priority 2019, published 2023)
